Data reported in patent US7875631B2, “Tetrahydroisoquinoline-and tetrahydrobenzazepine derivatives as igf-1 r inhibitors” (Analytecon S.A., priority 2004, dated 2011).
Values belong to the compound of their own block, whether it stands above or below them.

Experiments:
insulin receptor (IR) = target: T1, insulin receptor (IR) (Homo sapiens, UniProt P06213); test: Inhibition of phosphorylation of insulin receptor (IR) in SK-MEL-28; assay type: cell-based; settings: 1 microgram/ml, 2 hours
T1 construct: endogenous in cells; host or cells: SK-MEL-28
T1 sequence (P06213 28-1382): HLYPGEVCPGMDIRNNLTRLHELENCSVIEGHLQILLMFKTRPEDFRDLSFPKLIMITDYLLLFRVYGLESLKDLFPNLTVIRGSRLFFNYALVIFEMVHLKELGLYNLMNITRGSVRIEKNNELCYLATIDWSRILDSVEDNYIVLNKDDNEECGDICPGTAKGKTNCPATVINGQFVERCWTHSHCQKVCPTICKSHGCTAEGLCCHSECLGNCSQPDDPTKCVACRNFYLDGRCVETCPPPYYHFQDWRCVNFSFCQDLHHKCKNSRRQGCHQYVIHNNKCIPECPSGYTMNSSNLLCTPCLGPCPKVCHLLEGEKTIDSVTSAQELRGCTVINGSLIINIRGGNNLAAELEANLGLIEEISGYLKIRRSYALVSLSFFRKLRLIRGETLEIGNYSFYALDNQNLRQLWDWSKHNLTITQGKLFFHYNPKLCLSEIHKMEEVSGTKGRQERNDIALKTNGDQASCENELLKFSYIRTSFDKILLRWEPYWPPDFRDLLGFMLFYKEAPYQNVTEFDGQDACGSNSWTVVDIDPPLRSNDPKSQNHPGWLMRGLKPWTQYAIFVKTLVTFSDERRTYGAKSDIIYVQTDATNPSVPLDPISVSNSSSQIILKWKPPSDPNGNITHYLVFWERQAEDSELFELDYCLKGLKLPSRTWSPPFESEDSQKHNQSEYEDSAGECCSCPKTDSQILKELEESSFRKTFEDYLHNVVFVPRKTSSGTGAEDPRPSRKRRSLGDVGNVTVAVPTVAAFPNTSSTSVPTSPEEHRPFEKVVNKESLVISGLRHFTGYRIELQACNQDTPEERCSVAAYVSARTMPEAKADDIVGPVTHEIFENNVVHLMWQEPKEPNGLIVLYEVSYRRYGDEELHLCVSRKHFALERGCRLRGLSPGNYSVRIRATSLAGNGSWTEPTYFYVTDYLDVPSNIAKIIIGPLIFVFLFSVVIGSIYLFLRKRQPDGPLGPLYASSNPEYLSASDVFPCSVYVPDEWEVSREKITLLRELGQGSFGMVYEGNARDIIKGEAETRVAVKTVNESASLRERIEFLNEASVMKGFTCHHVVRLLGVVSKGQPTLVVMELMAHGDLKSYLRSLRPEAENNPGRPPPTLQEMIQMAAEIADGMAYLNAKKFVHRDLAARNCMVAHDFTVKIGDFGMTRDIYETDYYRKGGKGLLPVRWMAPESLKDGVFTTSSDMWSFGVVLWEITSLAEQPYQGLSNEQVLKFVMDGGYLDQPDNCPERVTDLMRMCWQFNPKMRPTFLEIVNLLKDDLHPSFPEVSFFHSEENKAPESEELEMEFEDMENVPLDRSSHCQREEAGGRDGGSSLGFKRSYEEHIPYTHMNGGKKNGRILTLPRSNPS
Protocol: SK-MEL-28 cells (density 60000/cm^2) were grown in 100 mm diameter dishes containing 10 ml RPMI 1640 supplemented with 10% fetal bovine serum (FBS) for 24 hours. After 24 hours fresh medium supplemented with 10% FBS was added together with or without 1 microgram/ml of compound 33. The dishes were incubated at 37° C. for 2 hours, after which the cells were lyzed and subjected to immunoprecipitation using 2 microliter of an anti-IR monoclonal antibody (18-44, ABCAM) and 20 microliter of agarose-conjugated protein G. Antibody-antigen complexes were allowed to form for 4 hours at 4° C. and after that collected by centrifugation at 4° C. for 1 minute at 5000 rpm. Immunoprecipitated complexes were separated by electrophoresis on an 8% polyacrylamide gel and electroblotted onto a nitrocellulose membrane (Amersham Bioscience). The efficiency of the immunoprecipitation was determined by using a polyclonal antibody against the beta-subunit of the insulin receptor (C-19; Santa Cruz Biotech.). Detection of the tyrosine phosphorylation of the insulin receptor was performed by incubation of the nitrocellulose membranes with an anti-phosphotyrosine antibody (4G10, Upstate Biotechnology Ltd., UK). […]

SK-Mel-28 cells = test: Interaction with cell division, mitotic index; assay type: cell-based, human; settings: four hours (vehicle 1.7)
Protocol: The mitotic index was determined after incubation of SK-Mel-28 cells with vehicle, the compound (I) of example 3 and nocodazole for four hours [essentially as described by C. L. Rieder et al.: Current Biology 10(2000) 1067-1070].

IGF-1R = target: T2, IGF-1R (Homo sapiens, UniProt P08069); test: Inhibition of phosphorylation of IGF-1R in SK-MEL-28; assay type: cell-based; settings: compound 1000 ng/ml for 2 hours, IGF-1 20 ng/ml for 5 minutes; IGF-1 alone = 100
T2 construct: endogenous in cells; host or cells: SK-MEL-28
T2 sequence (P08069 31-1367): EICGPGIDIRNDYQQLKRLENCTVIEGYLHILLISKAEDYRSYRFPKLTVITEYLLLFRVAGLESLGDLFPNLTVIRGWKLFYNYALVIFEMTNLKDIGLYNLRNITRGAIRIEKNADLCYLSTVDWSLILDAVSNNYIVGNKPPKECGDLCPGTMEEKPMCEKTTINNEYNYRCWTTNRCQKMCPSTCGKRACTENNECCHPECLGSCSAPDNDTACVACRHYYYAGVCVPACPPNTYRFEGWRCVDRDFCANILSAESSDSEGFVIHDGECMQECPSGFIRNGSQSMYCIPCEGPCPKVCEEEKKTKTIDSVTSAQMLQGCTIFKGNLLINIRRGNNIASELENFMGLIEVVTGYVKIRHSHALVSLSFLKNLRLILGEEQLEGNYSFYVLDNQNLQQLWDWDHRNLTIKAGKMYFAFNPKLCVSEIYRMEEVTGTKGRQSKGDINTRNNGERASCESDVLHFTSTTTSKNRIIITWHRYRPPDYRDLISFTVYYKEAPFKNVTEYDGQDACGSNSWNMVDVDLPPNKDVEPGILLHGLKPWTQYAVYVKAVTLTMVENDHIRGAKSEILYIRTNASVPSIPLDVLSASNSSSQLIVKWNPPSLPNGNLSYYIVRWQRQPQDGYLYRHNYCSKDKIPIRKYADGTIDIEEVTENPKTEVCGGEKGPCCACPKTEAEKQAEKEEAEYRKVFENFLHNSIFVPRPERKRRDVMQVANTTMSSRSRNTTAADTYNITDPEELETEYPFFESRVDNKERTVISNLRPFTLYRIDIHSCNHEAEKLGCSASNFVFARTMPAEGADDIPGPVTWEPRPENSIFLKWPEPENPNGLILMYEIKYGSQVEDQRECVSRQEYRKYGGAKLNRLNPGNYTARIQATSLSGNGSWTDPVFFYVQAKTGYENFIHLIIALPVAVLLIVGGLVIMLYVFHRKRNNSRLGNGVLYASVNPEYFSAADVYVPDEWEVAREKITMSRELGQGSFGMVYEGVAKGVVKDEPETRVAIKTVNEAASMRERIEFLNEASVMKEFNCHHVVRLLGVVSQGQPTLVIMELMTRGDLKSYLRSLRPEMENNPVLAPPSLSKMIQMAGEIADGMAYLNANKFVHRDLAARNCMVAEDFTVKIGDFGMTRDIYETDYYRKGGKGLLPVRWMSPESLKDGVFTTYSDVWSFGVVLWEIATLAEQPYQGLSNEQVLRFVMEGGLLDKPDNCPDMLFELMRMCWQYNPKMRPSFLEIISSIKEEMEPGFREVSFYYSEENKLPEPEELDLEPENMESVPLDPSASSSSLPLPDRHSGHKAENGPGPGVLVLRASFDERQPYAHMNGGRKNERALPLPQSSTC
Protocol: IGF-1R: Assay without treatment with compounds (I). (Essentially as described by M. Rubini et al. Exp. Cell Res. 230(1997) 284-292).
SK-MEL-28 cells (density 60000/cm^2; 100 mm diameter dish containing 10 ml RPMI 1640) were starved for 24 hours at 37° C. and thereafter treated for 5 minutes at 37° C. with IGF-1 (200 ng, Sigma). Untreated cells served as control. The cells were lyzed and subjected to immunoprecipitation using a specific antibody against IGF-1R (alfa-IR3, Oncogene Science). Immunoprecipitates were separated by polyacrylamide gel electrophoresis and transferred to nitrocellulose membranes (Amersham Bioscience). The immunoprecipitated IGF-1 receptor was located on the nitrocellulose membrane using an antibody against the alfa-subunit of the IGF-1R (N-20:sc-712, Santa Cruz Biotech.). Detection of the tyrosine phosphorylation of the IGF-1 receptor was performed by incubation of the nitrocellulose membranes with an anti-phosphotyrosine antibody (4G10, Upstate Biotechnology Ltd., UK). To reveal the anti-IGF-1R rabbit polyclonal antibody and the anti-phosphotyrosine mouse monoclonal antibody, the membranes were incubated with anti-rabbit IgG and anti-mouse IgG antibodies coupled to HRP, respectively, and visualized by the use of an enhanced chemiluminescence (ECL) detection system (Pierce). […]

Jurkat cells = test: Cell death by apoptosis, Annexin V staining, Jurkat; assay type: cell-based, human; settings: for percentage of Annexin-V positive cells: Jurkat, 500 ng/ml
Protocol: (§1) Jurkat and SK-MEL 28 cells were incubated with the compound (I) from example 3 for 6, 24 and 48 hours, after which the percentage of apoptotic cells were determined by Annexin V staining.
(§2) The numbers depicted in the Table represent the percentage of Annexin-V positive cells.

SK-MEL 28 cells = test: Cell death by apoptosis, Annexin V staining, SK-MEL 28; assay type: cell-based, human; settings: 500 ng/ml
Protocol: as §1, §2

difference in phosphorylation of the insulin receptor versus untreated cells (insulin receptor (IR)): No difference
SMILES: COc1ccc2c(c1)CCN(C#N)C2c1cc(OC)c(OC)c(OC)c1 (single isomer, unassigned; (-)) [Example 33, (−)-1-(3,4,5-trimethoxyphenyl)-2-cyano-6-methoxy-1,2,3,4-tetrahydroisoquinoline]

SMILES: COC(=O)Nc1nc2ccc(C(=O)c3cccs3)cc2[nH]1 [Nocodazole, reference compound]
mitotic index SK-Mel-28 (SK-Mel-28 cells; 10 μM): 2.9

% phosphorylation of IGF-1R in SK-MEL-28 cells (IGF-1R): 10%
SMILES: COc1ccc2c(c1)CCCN(C)C2c1cc(OC)c(OC)c(OC)c1.Cl (stereo not shown) [Example 31, 1-(3,4,5-trimethoxyphenyl)-2-methyl-7-methoxy-2,3,4,5-tetrahydro-1H-2-bezazepine hydrochloride]

SMILES: COc1ccc2c(c1)CCN(C(C)=O)C2c1cc(OC)c(OC)c(OC)c1 (racemic) [Example 3, 1-(3,4,5-trimethoxyphenyl)-2-acetyl-6-methoxy-1,2,3,4-tetrahydroisoquinoline]
percentage of Annexin-V positive cells (Jurkat cells; 6 hours): 8%
percentage of Annexin-V positive cells (Jurkat cells; 24 hours): 89%
induction of apoptosis (Jurkat cells; tested cell lines (Jurkat and SK-MEL 28), slower kinetics than SuperFasL): induces apoptosis
mitotic index SK-Mel-28 (SK-Mel-28 cells; 300 ng/ml): 5
percentage of Annexin-V positive cells (SK-MEL 28 cells; SK-Mel-28, 6 hours): 8%
percentage of Annexin-V positive cells (SK-MEL 28 cells; SK-Mel-28, 24 hours): 16%
percentage of Annexin-V positive cells (SK-MEL 28 cells; SK-Mel-28, 48 hours): 70%
